# Results as given in US7056511B2, “Inhibition of protein binding to mast cells” (Fornix Biosciences N.V., priority 1998, dated 2006).
# What was measured:
# mice = assay: Bronchoconstriction (Penh, plethysmography) in mice passively sensitized with TNP-specific Ig LC and challenged intranasally with PSA; assay type: in vivo
# Protocol: Lightly anaesthetized with halothane, mice were passively sensitized by injection with trinitrophenyl (TNP)-specific Ig LC (2 μg in 50 μl of sterile saline) in the retroorbital plexus. Control mice received only 50 μl of sterile saline. Thirty minutes after injection, while being lightly anaesthetized with halothane, all mice received intranasally 50 μl PSA-solution (picrylsulphonic acid dissolved in phosphate-buffered saline).
# A part of each of these two groups of mice simultaneously received 200 μg LCBP (the peptide prepared in Example 1) intranasally.
# Bronchoconstriction was measured as described by Kraneveld A. D. et al. (ref. 3) and Zuany-Amorim et al. (ref. 6). In short, five minutes before intranasal application of PSA, mice were placed in a plethysmographic chamber (Buxco Electronics Inc., Shanon, Conn.) in order to analyze respiration and to obtain basal line readings. After the intranasal administration, the animals were directly returned to the chamber. The respiratory resistance was measured for a period of 45 minutes. The respiratory resistance is expressed as a dimensionless value calculated by using the formula for the Penh (ref. 4).
# RBL-2H3 cells = assay: Binding of FITC-labeled Ig LC to RBL-2H3 mast cell model (FACScan flow cytometer); assay type: cell-based, rat
# Protocol: Basophilic leukemia cells RBL-2H3 (a gift of C. Fewtrell, Ithaca, N.Y., U.S.A.) of the rat, an established model for mast cells, were incubated with 200 ng/10^5 cells Ig LC labeled with fluorescein isothiocyanate. They were incubated for 30 minutes at 4° C. in the presence or absence of 250 μg/ml of the peptide LCBP prepared in preparation 1 (peptide binding to the light chain). Subsequently, they were washed using a phosphate-buffered saline supplemented with 1% v/v fetal calf serum and 0.01% w/v sodium azide. Binding of FITC-labeled Ig LC to RBL-2H3 cells was analyzed using a FACScan flow cytometer.
# Curve 4 represents the autofluorescence of unlabeled RBL-2H3 cells.
substance,measurement,setting,value
Ac-AHWSGHCCL-NH2 (cysteine pairing not given here) [LCBP],"Penh (maximum, respiratory resistance)","mice; LCBP/PBS/PSA group (200 μg LCBP intranasally, saline instead of Ig LC), time 0 min, basal line reading before the challenge",0.44 ± 0.05
same,"Penh (maximum, respiratory resistance)","mice; LCBP/PBS/PSA group (200 μg LCBP intranasally, saline instead of Ig LC), time 2.5 min",0.60 ± 0.12
same,"Penh (maximum, respiratory resistance)","mice; LCBP/PBS/PSA group (200 μg LCBP intranasally, saline instead of Ig LC), time 5 min",0.65 ± 0.23
same,"Penh (maximum, respiratory resistance)","mice; LCBP/PBS/PSA group (200 μg LCBP intranasally, saline instead of Ig LC), time 7.5 min",0.74 ± 0.12
same,"Penh (maximum, respiratory resistance)","mice; LCBP/PBS/PSA group (200 μg LCBP intranasally, saline instead of Ig LC), time 10 min",0.53 ± 0.03
same,"Penh (maximum, respiratory resistance)","mice; LCBP/PBS/PSA group (200 μg LCBP intranasally, saline instead of Ig LC), time 15 min",0.49 ± 0.06
same,"Penh (maximum, respiratory resistance)","mice; LCBP/PBS/PSA group (200 μg LCBP intranasally, saline instead of Ig LC), time 20 min",0.49 ± 0.03
same,"Penh (maximum, respiratory resistance)","mice; LcBP/Ig LC/PSA group (200 μg LCBP intranasally, Ig LC-sensitized mice), time 0 min, basal line reading before the challenge",0.43 ± 0.05
same,"Penh (maximum, respiratory resistance)","mice; LcBP/Ig LC/PSA group (200 μg LCBP intranasally, Ig LC-sensitized mice), time 2.5 min",0.87 ± 0.20
same,"Penh (maximum, respiratory resistance)","mice; LcBP/Ig LC/PSA group (200 μg LCBP intranasally, Ig LC-sensitized mice), time 5 min",1.12 ± 0.20
same,"Penh (maximum, respiratory resistance)","mice; LcBP/Ig LC/PSA group (200 μg LCBP intranasally, Ig LC-sensitized mice), time 7.5 min",0.87 ± 0.10
same,"Penh (maximum, respiratory resistance)","mice; LcBP/Ig LC/PSA group (200 μg LCBP intranasally, Ig LC-sensitized mice), time 10 min",0.87 ± 0.20
same,"Penh (maximum, respiratory resistance)","mice; LcBP/Ig LC/PSA group (200 μg LCBP intranasally, Ig LC-sensitized mice), time 15 min",0.85 ± 0.01
same,"Penh (maximum, respiratory resistance)","mice; LcBP/Ig LC/PSA group (200 μg LCBP intranasally, Ig LC-sensitized mice), time 20 min",0.52 ± 0.05
same,Inhibition of bronchoconstriction (elevation of Penh) induced by antigen (PSA),mice; intranasal LCBP during passive sensitization (i.v.) with Ig LC,completely inhibit
same,Inhibition of Ig LC binding to mast cells,"RBL-2H3 cells; LCBP 0.25 mg/ml, FIG. 1 curve 2",can be inhibited
same,Inhibition of Ig LC binding to mast cells,"RBL-2H3 cells; LCBP 0.50 mg/ml, FIG. 1 curve 3",can be inhibited
